According to patent US7863040B2, “Ready-to-use whole blood collection vessel” (Roche Diagnostics Operations, Inc., priority 2006, dated 2011):

How the values were obtained:
[1] = in vivo; cited from earlier work
[2] = cited from earlier work
[3] = tested on: erythrocytes; assay: Visual evaluation of hemolysis (time until a clear solution is observed); format: cell-based
Experimental: Whether the conditions for differential hemolysis are appropriate can be easily and preferably determined by using the following standardized procedure. A whole blood sample with a hematocrit of 40 is diluted 1:10 and then mixed 1:1 with the candidate hemolysis reagent. The efficacy of a reagent for bringing about differential hemolysis is seen visually. Upon lysis of the erythrocytes the mixture becomes clear. If precipitation of sample constituents occurs the sample becomes turbid or viscous or both.
As indicated above, the conditions used in a method of differential hemolysis according to the present invention can easily be assessed visually. If a whole blood sample is incubated with an appropriate candidate reagent for differential hemolysis the minimal concentration required to hemolyze red blood cells can be recognized as the concentration rendering the turbid blood sample transparent or clear. The highest possible concentration is the one still leading to a transparent and non-viscous sample.
(§1) Solution A: Fresh EDTA-stabilized whole blood is diluted with 0.15 molar sodium chloride solution in the ratio 1:10 (50 μL EDTA-blood plus 450 μL sodium chloride solution).
In the case of the addition of a second anion, e.g., iodine (1-Butyl-3-methylpyridiniumchloride/KJ) the stated salt is added in an equimolar amount.
Hemolysate is prepared by mixing solution A and B in equal volumes, e.g., 500 μL solution A plus 500 μL solution B.
After mixing the hemolysate is inspected visually for turbidometry and clearness immediately after mixing, after 1 minute, 2, 5, 6, 7, 20 and 40 minutes. The time until a clear solution is observed is recorded.

[4] = tested on: erythrocytes; assay: Microscopic evaluation of hemolysis, May-Grünwald staining; format: cell-based
Experimental: Solution A: Fresh EDTA-stabilized whole blood is diluted with 0.15 molar sodium chloride solution in the ratio 1:10 (50 μL EDTA-blood plus 450 μL sodium chloride solution). Solution B: […] Hemolysate is prepared by mixing solution A and B in equal volumes, e.g., 20 μL solution A plus 20 μL solution B After mixing of the hemolysate a droplet is smeared on a microscope slide, air dried at room temperature and stained with May-Grünwald staining reagent (Merck Cat. No. 1.01424 May-Grünwald's Eosin Methylene Blue Solution). […] Microscopy is performed by oil immersion light microscopy (magnification ×630).

[5] = tested on: erythrocytes; assay: Microscopic evaluation of hemolysis, Trypane blue staining; format: cell-based; conditions: 1 in 10 diluted whole blood, reagent 25%
Experimental: The integrity of red blood cells can for example be easily assessed by appropriate life stains. In a preferred embodiment according to the present invention trypane blue is used in order to assess the integrity of a red blood cell membrane. […] The membrane integrity of a red blood cell is easily assessed under the microscope after staining a sample with trypane blue. The percentage of disrupted red blood cells is calculated by counting intact red blood cells before and after the treatment, by then dividing the first number by the latter number and by then multiplying this value by 100. Red blood cells that are solubilized are referred to as lyzed red blood cells or as lyzed erythrocytes.
as §1
Solution B: A solution of the hemolysis reagent in 0.15 molar sodium chloride is prepared where the concentration of the hemolysis reagent is twice as high as the desired final concentration in the hemolysate, e.g., to get a final concentration of 25% of 1-Butyl-4-methylpyridinium tetrafluoroborate a solution of 50% ([…] plus 50 mL 0.15 molar sodium chloride in water) is prepared. […]

[6] = tested on: EDTA-anticoagulated whole blood; assay: Processing of EDTA-anticoagulated whole blood in a tube with reagent for differential hemolysis (time to optically clear lysate); format: cell-based
Experimental: This reagent for differential hemolysis thus has a concentration of about 25% BMPBF4. […] 250 microliter of EDTA-anticoagulated whole blood is pipetted into a vial containing 5 milliliter of this lysis reagent. For hemolysis the content of the tube is gently mixed by shaking. An optically clear lysate is obtained within five minutes. The lysate is stored at 4° C. Stability of the lysate is inspected after 1, 4 and 7 days by visual inspection. […] This reagent for differential hemolysis thus has a concentration of about 2% Me-octPCl. 250 microliter of EDTA-anticoagulated whole blood is pipetted into a vial containing 5 milliliter of this lysis reagent. For hemolysis the content of the tube is gently mixed by shaking. An optically clear lysate is obtained within five minutes. The lysate is stored at 4° C. Stability of the lysate is inspected after 1, 4 and 7 days by visual inspection. […] This reagent for differential hemolysis has a concentration of about 15% Me-octPCl. […] For hemolysis the content of the tube is gently mixed by shaking. An optically clear lysate is obtained within five minutes. The lysate is stored at 4° C. Stability of the lysate is inspected after 1, and 2 days by visual inspection. […] This reagent for differential hemolysis has a concentration of about 10% COMPCl. […]

[7] = final concentration 25% (weight/volume), whole blood final dilution 1:20
[8] = final concentration 12.5% (weight/volume)

C=CC[C@@H]1/C=C(\C)C[C@H](C)C[C@H](OC)[C@H]2O[C@@](O)(C(=O)C(=O)N3CCCC[C@H]3C(=O)O[C@H](/C(C)=C/[C@@H]3CC[C@@H](O)[C@H](OC)C3)[C@H](C)[C@@H](O)CC1=O)[C@H](C)C[C@@H]2OC [Tacrolimus, tacrolimus]
therapeutic trough concentration [1]: 5 to 20 µg/L
potency relative to cyclosporin in vitro [2]: up to 100 times

CCCCCCCC[n+]1ccccc1.[Cl-] [N-Octylpyridiniumchloride]
clear after [3, 7]: 2 min

O [water, reference compound]
Light microscopy of hemolyzed whole blood, May-Grünwald staining ([4]; 1 in 10 diluted whole blood hemolyzed with water): Erythrocyte membranes and nuclei are visible

CCCCCC[n+]1ccccc1.[Cl-] [1-Hexylpyridiniumchloride]
clear after (min.) [3, 8]: turbid
clear after [3, 7]: 7 min

CCCCCCCCOS(=O)(=O)[O-].CCCCn1cc[n+](C)c1 [l-Butyl-3-methyl-imidazoliumoctylsulfate, 1-Butyl-3-methyl-imidazoliumoctylsulfate]
clear after (min.) [3, 7]: immediately

CCCCn1cc[n+](C)c1.F[B-](F)(F)F [1-Butyl-3-methyl-imidazolium tetrafluoroborate]
clear after [3, 7]: 20 min

CCCC[n+]1cccc(C)c1.[Cl-] [1-Butyl-3-methyl pyridiniumchloride, 1-Butyl-3-methylpyridiniumchloride]
clear after (min.) [3, 7]: turbid

CCCCCCCC[N+]1(C)CCCC1.[Cl-] [1-Methyl-1-octyl pyrrolidiniumchloride]
clear after (min.) ([3]; final concentration 2.5% (weight/volume)): turbid
clear after (min.) [3, 7]: immediately

CCCC[n+]1ccc(C)cc1.F[B-](F)(F)F [1-Butyl-4-methylpyridinium tetrafluoroborate]
clear after (min.) ([3]; final concentration 6% (weight/volume)): Turbid
clear after [3, 8]: 40 min
clear after [3, 7]: 20 min
Light microscopy of hemolyzed whole blood, May-Grünwald staining ([4]; 1 in 10 diluted whole blood, reagent 25%): No erythrocytes or membranes are left, nuclei are still intact
Light microscopy of hemolyzed whole blood, Trypane blue staining ([5]; 2.5 min incubation time): Only few residual erythrocytes are left
Light microscopy of hemolyzed whole blood, Trypane blue staining ([5]; 15 min incubation time): No erythrocytes or membranes are left
time until optically clear lysate is obtained ([6]; 250 microliter blood into 5 milliliter reagent, about 25% BMPBF4): five

CCCCCCCCOC[n+]1cccc(C(N)=O)c1.[Cl-] [3-Carbamoyl-1-octyloxymethyl pyridiniumchloride]
clear after (min.) ([3]; final concentration 1.5% (weight/volume)): immediately
clear after (min.) ([3]; final concentration 6.25% (weight/volume)): immediately
clear after (min.) [3, 8]: immediately
time until optically clear lysate is obtained ([6]; 50 microliter blood into 130 microliter reagent, about 10% COMPCl): five

COc1c(C)c2c(c(O)c1C/C=C(\C)CCC(=O)OCCN1CCOCC1)C(=O)OC2 [MMF, mycophenolate mofetil]
therapeutic trough concentration [1]: 1000 to 3500 µg/L

CO[C@H]1C[C@@H]2CC[C@@H](C)[C@@](O)(O2)C(=O)C(=O)N2CCCC[C@H]2C(=O)O[C@H]([C@H](C)C[C@@H]2CC[C@@H](O)[C@H](OC)C2)CC(=O)[C@H](C)/C=C(\C)[C@@H](O)[C@@H](OC)C(=O)[C@H](C)C[C@H](C)/C=C/C=C/C=C/1C [sirolimus, rapamycin]
therapeutic trough concentration [1]: 5 to 15 µg/L
